Key:
Type in all cases: in vivo, SD rats
[1] = test system: rat pulmonary fibrosis model; test: Lung function (FinePointe PFT) in bleomycin pulmonary fibrosis rats, Example 1
Experimental: (§1) A rat pulmonary fibrosis model was prepared using a one-time intratracheal instillation of bleomycin. After the rat was anesthetized by intraperitoneal injection of 10% chloral hydrate (3.0 ml/kg), it was tilted back and fixed on a rat board and irradiated with light source on the throat, and the glottis was seen to open and close in an orderly manner with breathing when the tongue was gently lifted to open the mouth. The indwelling needle was gently pushed into the trachea as the glottis opened and closed, the needle core was pulled out, and whether tracheal intubation was successful was verified by swing of a cotton thread. Bleomycin was injected into the trachea at a dose of 5 mg/kg, and 0.5 ml of air was further injected to ensure the depth of the drug. The rat was held upright and rocked from side to side to ensure even distribution of the drug in the lung. The anesthetized rat was placed on an electric blanket to maintain body temperature. After waking up, it is placed into a corresponding cage. The rats were fed normally until the 28th day, drinking pure water and eating sterile feed freely every day.
(§2) The modeling day was set as day 0.
(§3) Before collecting the sample, the rat was anesthetized and submitted to a tracheotomy, and the tracheal tube was inserted into the rat's trachea and fixed. The FinePointe™ series PFT measurement system was used to detect the rat's forced vital capacity (FVC), forced expiratory volume in 0.3 s (FEV 0.3), vital capacity (VC), and dynamic lung compliance (Cydn).

[2] = test system: rat pulmonary fibrosis model; test: Lung tissue pathology, H&E and Masson staining, Szapiel scoring, Example 1; conditions: for Alveolitis (score): H&E staining; for Alveolitis (score) / Pulmonary fibrosis (score): score 0-3, doses per Table 4, 14 days, X ± SE, N = 6; for Pulmonary fibrosis (score): Masson staining
Experimental: as §1, §2
The left lung was fixed with 10% formaldehyde for 72 hours, embedded in paraffin, sectioned at 4 μm for HE and Masson staining.
Pathological scoring of alveolitis and pulmonary fibrosis was performed according to the Szapiel method, the degree of alveolitis was determined by HE staining, and the degree of pulmonary fibrosis was determined by Masson staining.
The pathological changes in lung tissue were observed using an optical microscope. 6 sections were selected from each group and 6 fields were selected from each section.

[3] = test system: CoL I; test: CoL I expression in lung tissue by immunohistochemistry, Example 1; conditions: for COL I (IOD): lung tissue IHC, doses per Table 4, 14 days, X ± SE, N = 6; for expression of CoL I protein, compared with the model group: P<0.01, P<0.05
Experimental: as §1, §2
(§4) The detection was performed by Immunohistochemistry.
(§5) The lung tissue was sliced into 4 μm sections and baked at 60° C. for 3 hours. The paraffin sections were dewaxed in xylene, dehydrated in gradient alcohols, and washed in distilled water for 2 minutes in order. The washed sections were then boiled in 0.01 M citrate buffer in a microwave oven for antigen retrieval. A 3% […] was added dropwise to the sections to block endogenous peroxidase. After the sections were blocked with a 5% BSA blocking solution and incubated at 37° C. for 30 minutes, the primary antibody was added dropwise thereto (the dilution ratio was 1:500 for CoL I, and 1:2000 for α-SMA), and the sections were incubated overnight in a humid box at 4° C. HRP-labeled goat anti-rabbit secondary antibody was added dropwise, and the sections were incubated at 37° C. for 20 minutes; and then SABC was added dropwise and the sections were incubated at 37° C. for 30 minutes. Thereafter, a freshly prepared DAB chromogenic solution was added dropwise, and the sections were observed under a microscope, and the color development was stopped once brownish yellow appeared. The sections were counterstained with hematoxylin for 30 seconds, differentiated with a 1% hydrochloric acid in alcohol for 3 seconds; and dehydrated in gradient alcohols in sequence. The sections were dried in a fume hood, sealed with neutral gum, and dried in the air. Images were collected with Olympus-DP70 microscope (Image-Pro Plus 6.0, IPP 6.0), 6 fields were randomly selected for each section, and the image integrated optical density (IOD) was calculated.

[4] = test system: α-SMA; test: α-SMA expression in lung tissue by immunohistochemistry, Example 1; conditions: for expression of α-SMA protein, compared with the model group: P<0.05; for α-SMA (IOD): lung tissue IHC, doses per Table 4, 14 days, X ± SE, N = 6
Experimental: as §1, §2, §4, §5

[5] = test system: rat pulmonary fibrosis model; test: R value comprehensive evaluation of 8 indicators, Example 1; conditions: for Total efficacy related indicator R value: 8 indicators, R=1 best effect, R=2 no corrective effect, X ± SE, N = 8
Experimental: The data were standardized and the Rcomprehensive value data set was established (Rcomprehensive=R−(−2)). […] When Rcomprehensive<1, it means that the comprehensive corrective degree of the drug on such indicators exceeds the normal value.
A total of 8 indicators, i.e., lung function (FVC, FEV0.3, IC, Cydn), lung tissue pathology (H&E staining, Masson staining), and collagen deposition (CoL I, α-SMA) were calculated using the R value comprehensive evaluation method.

[6] = test system: rat pulmonary fibrosis model; test: Lung function in bleomycin pulmonary fibrosis rats, Example 2; conditions: for Cydn / FEV0.3 / FVC: isoliquiritigenin, paeoniflorin, combination each 0.55 mg/kg/d intragastric, day 29-42, X ± SE, N = 10
Experimental: In order to evaluate the difference in the efficacy of isoliquiritigenin and paeoniflorin alone and in combination, a study was conducted by splitting the Formula 8 into isoliquiritigenin, paeoniflorin and combination thereof, each adopting the dose of 0.55 mg/kg/d.
The experimental materials and research methods were the same as those in Example 1.
A total of 72 rats were randomly divided into blank group, model group, isoliquiritigenin group, paeoniflorin group, combination group, and pirfenidone group, 6 groups in total, 12 rats in each group, and 6 female/group, 6 male/group. The modeling day was set as day 0. From the 29th day, the blank group (normal rats without modeling) and the model group were administered intragastrically with physiological saline (2 ml/rat), the isoliquiritigenin group was administered with isoliquiritigenin (0.55 mg/kg/d), the paeoniflorin group was administered with paeoniflorin (0.55 mg/kg/d), and the combination group was administered with isoliquiritigenin+paeoniflorin (0.55 mg/kg/d), once daily, for 14 days, and the samples were collected at the end of the 42nd day.
as §3, with “rats were” for “rat was”

[7] = test system: rat pulmonary fibrosis model; test: Lung tissue pathology, H&E and Masson staining, Szapiel scoring, Example 2; conditions: for Alveolitis (score): H&E staining; for Alveolitis (score) / Pulmonary fibrosis (score): each 0.55 mg/kg/d, 14 days, X ± SE, N = 6; for Pulmonary fibrosis (score): Masson staining
Experimental: The experimental materials and research methods were the same as those in Example 1. […] The modeling day was set as day 0. […] The left lung was fixed with 10% formaldehyde for 72 hours, embedded in paraffin, sectioned at 4 μm for HE and Masson staining. Pathological scoring of alveolitis and pulmonary fibrosis was performed according to the Szapiel method, the degree of alveolitis was determined by HE staining, and the degree of pulmonary fibrosis was determined by Masson staining. The pathological changes in the lung tissue were observed using an optical microscope. 6 sections were selected from each group and 6 fields were selected from each section.

[8] = test system: rat pulmonary fibrosis model; test: Lung function in bleomycin pulmonary fibrosis rats, Example 2; conditions: for IC: isoliquiritigenin, paeoniflorin, combination each 0.55 mg/kg/d intragastric, day 29-42, X ± SE, N = 10
[9] = bleomycin 5 mg/kg intratracheal, intragastric once daily day 29-42, doses per Table 4, X ± SE, N = 10

Compound	Cydn [1, 9]	FEV0.3 [1, 9]	Alveolitis (score) [2]	Pulmonary fibrosis (score) [2]	COL I (IOD) [3]	expression of α-SMA protein, compared with the model group [4]	α-SMA (IOD) [4]	Total efficacy related indicator R value [5]	alveolitis scores, compared with the model group ([2]; P<0.01, P<0.05)	expression of CoL I protein, compared with the model group [3]	FEV0.3, compared with the model group ([6]; P<0.01, P<0.05)	Cydn [6]	FEV0.3 [6]	FVC [6]	Alveolitis (score) [7]	Pulmonary fibrosis (score) [7]	pulmonary fibrosis score, compared with the model group ([7]; P<0.01, P<0.05)	IC [8]	IC, compared with the model group ([1]; P<0.01, P<0.05)	other results
COc1ccc(-c2cc(=O)c3c(OC)c(OC)c(OC)c(OC)c3o2)cc1OC [Formula 5, nobiletin]	0.35 ± 0.02 mL/s	11.44 ± 1.41 mL/s	1.39 ± 0.54 score	1.56 ± 0.49 score	18.40 ± 0.89 IOD	significantly reduced	9.030 ± 0.8 IOD	1.48 ± 0.46												Cydn, compared with the model group ([1]; P<0.05): increased
C[C@H]1CC[C@@H]2N(C1)C[C@H]1[C@@H]3C[C@H]4[C@@H](C[C@H](O)[C@H]5C[C@@H](O)CC[C@@]54C)[C@@H]3CC[C@@H]1[C@]2(C)O [Formula 6, peimine]	0.30 ± 0.03 mL/s	12.04 ± 1.36 mL/s	1.17 ± 0.19 score	1.39 ± 0.23 score	17.37 ± 0.89 IOD	significantly reduced	9.647 ± 0.8 IOD	1.57 ± 0.29	significantly reduced											
O=C(/C=C/c1ccc(O)cc1)c1ccc(O)cc1O [Formula 4, isoliquiritigenin]	0.30 ± 0.03 mL/s	10.42 ± 1.43 mL/s	1.72 ± 0.25 score	1.78 ± 0.33 score	15.54 ± 2.59 IOD		12.20 ± 0.89 IOD	1.82 ± 0.11^∘∘		significantly reduced	increased	0.32 ± 0.04 mL/s	11.09 ± 1.01 mL/s	11.34 ± 0.78 mL/s	1.68 ± 0.30 score	1.74 ± 0.31 score	could reduce	9.03 ± 0.88 mL/s		
paeoniflorin [Formula 7]	0.31 ± 0.03 mL/s	14.70 ± 1.25^##Δ ml/s	1.44 ± 0.27 score	0.94 ± 0.16 score	13.61 ± 1.90 IOD	significantly reduced	10.57 ± 0.36 IOD	1.41 ± 0.27^##□▪		significantly reduced	increased	0.31 ± 0.54 mL/s	12.88 ± 0.98 mL/s	13.49 ± 1.17 mL/s	1.52 ± 0.29 score	1.65 ± 0.19 score	could reduce	9.62 ± 0.54 mL/s	significantly increased	FEV0.3, compared with the model group ([1]; P<0.01, P<0.05): significantly increased; FVC, compared with the model group ([1]; P<0.01, P<0.05): significantly increased; FEV0.3, compared with the pirfenidone group ([1]; P<0.05): increased; FVC, compared with the pirfenidone group ([1]; P<0.05): increased; FVC [1, 9]: 15.95 ± 1.36^##Δ ml/s; IC [1, 9]: 9.84 ± 0.75 mL/s; pulmonary fibrosis scores, compared with the model group ([2]; P<0.01, P<0.05): significantly reduced; R value comprehensive evaluation, comparison between treatment groups [5]: better than the Formula 3 (icariin), the Formula 4 (isoliquiritigenin), and the Formula 5 (nobiletin); FVC, compared with the model group ([6]; P<0.01, P<0.05): increased
Cc1ccc(=O)n(-c2ccccc2)c1 [Pirfenidone]	0.33 ± 0.03 mL/s	10.68 ± 0.97 mL/s	1.33 ± 0.24 score	1.33 ± 0.37 score	10.41 ± 0.63 IOD		12.57 ± 1.17 IOD	1.61 ± 0.32^#^		significantly reduced	increased	0.33 ± 0.03 mL/s	13.46 ± 1.04 mL/s	12.34 ± 1.11 mL/s	1.43 ± 0.28 score	1.46 ± 0.39 score	significantly reduced	10.77 ± 0.83 mL/s	significantly increased	alveolitis score, compared with the model group ([7]; P<0.01, P<0.05): significantly reduced; IC, compared with the model group ([8]; P<0.01, P<0.05): increased
COc1ccc(-c2oc3c(CC=C(C)C)c(O[C@@H]4O[C@H](CO)[C@@H](O)[C@H](O)[C@H]4O)cc(O)c3c(=O)c2O[C@@H]2O[C@@H](C)[C@H](O)[C@@H](O)[C@H]2O)cc1 [Formula 3, icariin]	0.34 ± 0.05 mL/s	10.46 ± 1.58 mL/s	0.94 ± 0.39 score	1.33 ± 0.31 score	17.80 ± 1.44 IOD		12.03 ± 1.87 IOD	1.76 ± 0.16^∘^	significantly reduced											

Reference: patent US20260108548A1, “COMPOSITION OF PAEONIFLORIN AND ISOLIQUIRITIGENIN AND USE THEREOF” (HENAN UNIVERSITY OF CHINESE MEDICINE, priority 2023, published 2026)
